Broadly, the pIC50 is −log10 of the IC50, conventionally taken in molar units. Lower therefore signals a high IC50.

24 compounds from patent US9273077B2, “Phosphorus derivatives as kinase inhibitors” (ARIAD Pharmaceuticals, Inc., priority 2008, dated 2016) can be followed below.

pIC50: −log10 of the molar value.

The target of the experiment is T1, ALK (Homo sapiens, UniProt Q9UM73).
T1 construct: Kinases are expressed as either kinase domains or full length constructs fused to glutathione S-transferase (GST) or polyHistidine tagged fusion proteins; made in house; host or cells: E. coli or Baculovirus-High Five (not specified which for ALK)
T1 sequence (Q9UM73 19-1620): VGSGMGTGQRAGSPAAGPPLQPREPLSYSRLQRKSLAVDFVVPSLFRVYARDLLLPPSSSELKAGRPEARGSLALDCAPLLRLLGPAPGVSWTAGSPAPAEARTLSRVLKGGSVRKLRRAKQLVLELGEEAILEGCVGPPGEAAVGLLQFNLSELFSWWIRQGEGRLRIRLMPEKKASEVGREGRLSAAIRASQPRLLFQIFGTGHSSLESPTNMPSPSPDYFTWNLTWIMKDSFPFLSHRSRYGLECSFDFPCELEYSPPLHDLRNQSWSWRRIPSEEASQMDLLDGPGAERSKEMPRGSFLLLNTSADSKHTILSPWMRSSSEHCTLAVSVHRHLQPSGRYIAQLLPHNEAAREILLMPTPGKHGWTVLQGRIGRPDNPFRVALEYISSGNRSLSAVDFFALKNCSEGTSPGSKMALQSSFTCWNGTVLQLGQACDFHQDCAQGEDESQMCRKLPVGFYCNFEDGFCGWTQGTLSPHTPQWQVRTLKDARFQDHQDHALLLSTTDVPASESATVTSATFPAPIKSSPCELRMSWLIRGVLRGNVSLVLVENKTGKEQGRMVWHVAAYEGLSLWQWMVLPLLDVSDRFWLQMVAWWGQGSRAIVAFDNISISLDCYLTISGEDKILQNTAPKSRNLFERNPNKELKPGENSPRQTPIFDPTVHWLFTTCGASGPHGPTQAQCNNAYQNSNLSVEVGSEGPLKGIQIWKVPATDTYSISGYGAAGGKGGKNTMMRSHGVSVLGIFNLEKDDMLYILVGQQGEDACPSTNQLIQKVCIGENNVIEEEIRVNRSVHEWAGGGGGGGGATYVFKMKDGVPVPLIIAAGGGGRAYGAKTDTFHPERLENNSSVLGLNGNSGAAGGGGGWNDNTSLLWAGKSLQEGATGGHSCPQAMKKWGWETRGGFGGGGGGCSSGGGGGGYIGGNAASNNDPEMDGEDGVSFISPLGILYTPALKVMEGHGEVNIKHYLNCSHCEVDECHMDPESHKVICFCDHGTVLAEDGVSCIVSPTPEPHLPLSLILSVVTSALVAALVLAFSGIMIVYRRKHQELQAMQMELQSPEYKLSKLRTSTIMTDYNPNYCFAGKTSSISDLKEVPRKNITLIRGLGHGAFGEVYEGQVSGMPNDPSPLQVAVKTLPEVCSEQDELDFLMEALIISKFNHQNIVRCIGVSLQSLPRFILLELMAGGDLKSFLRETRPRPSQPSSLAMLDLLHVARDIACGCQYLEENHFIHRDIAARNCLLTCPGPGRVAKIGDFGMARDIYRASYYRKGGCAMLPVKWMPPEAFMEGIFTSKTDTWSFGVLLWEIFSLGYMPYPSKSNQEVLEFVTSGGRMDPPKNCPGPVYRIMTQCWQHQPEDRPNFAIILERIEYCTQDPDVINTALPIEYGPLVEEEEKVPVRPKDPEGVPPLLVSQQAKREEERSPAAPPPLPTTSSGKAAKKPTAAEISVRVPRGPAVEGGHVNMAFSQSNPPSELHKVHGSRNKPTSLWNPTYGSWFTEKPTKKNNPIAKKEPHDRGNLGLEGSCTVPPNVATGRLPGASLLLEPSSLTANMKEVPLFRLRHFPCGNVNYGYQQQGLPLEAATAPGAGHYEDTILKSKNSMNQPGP
The experiment is described as follows: inhibitory potency against ALK (kinase inhibition assay). The experiment is classed as biochemical. From the text: More specifically, the compounds described herein are screened for kinase inhibition activity as follows. Kinases suitable for use in the following protocol include, but are not limited to: ALK, Jak2, b-Raf, c-Met, Tie-2, FLT3, Abl, Lck, Lyn, Src, Fyn, Syk, Zap-70, Itk, Tec, Btk, EGFR, ErbB2, Kdr, FLT1, Tek, InsR, and AKT.
Kinases are expressed as either kinase domains or full length constructs fused to glutathione S-transferase (GST) or polyHistidine tagged fusion proteins in either E. coli or Baculovirus-High Five expression systems. They are purified to near homogeneity by affinity chromatography as previously described (Lehr et al., 1996; Gish et al., 1995). In some instances, kinases are co-expressed or mixed with purified or partially purified regulatory polypeptides prior to measurement of activity.
Kinase activity and inhibition can be measured by established protocols (see e.g., Braunwalder et al., 1996). In such cases, the transfer of ^33PO4 from ATP to the synthetic substrates poly(Glu, Tyr) 4:1 or poly(Arg, Ser) 3:1 attached to the bioactive surface of microtiter plates is taken as a measure of enzyme activity. After an incubation period, the amount of phosphate transferred is measured by first washing the plate with 0.5% phosphoric acid, adding liquid scintillant, and then counting in a liquid scintillation detector. The IC50 is determined by the concentration of compound that causes a 50% reduction in the amount of ^33P incorporated onto the substrate bound to the plate.
For example, in one method, compounds can be tested for their ability to inhibit kinase activity of baculovirus-expressed ALK using a modification of the ELISA protocol reported for trkA in Angeles, T. S. et al., Anal. Biochem. 1996, 236, 49-55, which is incorporated herein by reference. Phosphorylation of the substrate, phopholipase C-gamma (PLC- ? ) generated as a fusion protein with glutathione-S-transferase (GST) as reported in rotin, D. et al., EMBO J. 1992, 11, 559-567, which is incorporated by reference, can be detected with europium-labeled anti-phosphotyrosine antibody and measured by time-resolved fluorescence (TRF). […] Detection of the phosphorylated product can be performed by adding 100 ? L/well of Eu-N1 labeled PT66 antibody (Perkim Elmer #AD0041). Incubation at 37 degrees C. then proceeds for one hour, followed by addition of 100 ? L enhancement solution (for example Wallac #1244-105). The plate is gently agitated and after thirty minutes, the fluorescence of the resulting solution can be measured (for example using EnVision 2100 (or 2102) multilabel plate reader from Perkin Elmer).
Data analysis can then be performed. IC50 values can be calculated by plotting percent inhibition versus log10 of concentration of compound.
The inhibition of ALK tyrosine kinase activity can also be measured using the recombinant kinase domain of the ALK in analogy to VEDG-R kinase assay described in J. Wood et al., Cancer Res 2000, 60, 2178-2189. In vitro enzyme assays using GST-ALK protein tyrosine kinase can be performed in 96-well plate as a filter binding assay in 20 mMTris.HCl, pH 7.5, 3 mM MgCl2, 10 mM MnCl2, […], 0.1 ? Ci/assay (=30 ? L) [ ? -^33P]-ATP, 2 ? M ATP, 3 ? g/mL poly (Glu, tyr 4:1) Poly-EY (sigma P-0275), 1% DMSO, 25 ng ALK enzyme. Assays can be incubated for 10 min, at ambient temperature. Reactions can be terminated by adding 50 ? L of 125 mM EDTA, and the reaction mixture can be transferred onto a MAIP Multiscreen plate (Millipore, Bedford, Mass.) previously wet with methanol, and rehydrated for 5 minutes with water. Following washing (0.5% H3PO4), plates can be counted in a liquid scintillation counter. IC50 values are calculated by linear regression analysis of the percentage inhibition.
As to `CP(C)(=O)c1ccc(Nc2ncc(C(F)(F)F)c(NC34CC5CC(CC(C5)C3)C4)n2)cc1` [Example 2, N^2-[4-(dimethylphosphoryl)phenyl]-N′-(tricyclo[3.3.1.1^3,7]dec-1-yl)-5-(trifluoromethyl)pyrimidine-2,4-diamine], the negative logarithm of the IC50 (pIC50) is less than 8.00.

The compound `CP(C)(=O)c1ccc(Nc2ncc(C(F)(F)F)c(NCCc3ccc(S(N)(=O)=O)cc3)n2)cc1` [Example 5, 4-(2-{[2-{[4-(dimethylphosphoryl)phenyl]amino}-5-(trifluoromethyl)pyrimidin-4-yl]amino}ethyl)benzenesulfonamide] had a pIC50 of less than 8.00.

`CP(C)(=O)c1ccc(Nc2ncc(C(F)(F)F)c(NC3CCCO3)n2)cc1` (stereo not drawn) [Example 6, N^2-[4-(dimethylphosphoryl)phenyl]-N^4-(tetrahydrofuran-2-yl)-5-(trifluoromethyl)pyrimidine-2,4-diamine] showed a pIC50 of less than 8.00. `CP(C)(=O)c1ccc(Nc2ncc(C(F)(F)F)c(NN3CC4CCCC4C3)n2)cc1` (stereo not drawn) [Example 7, N^2-[4-(dimethylphosphoryl)phenyl]-N^4-(hexahydrocyclopenta[c]pyrrol-2(1H)-yl)-5-(trifluoromethyl)pyrimidine-2,4-diamine] showed a pIC50 of less than 8.00. For `CP(C)(=O)c1ccc(Nc2ncc(C(F)(F)F)c(NN3CCOCC3)n2)cc1` [Example 8, N^2-[4-(dimethylphosphoryl)phenyl]-N^4-(morpholin-4-yl)-5-(trifluoromethyl)pyrimidine-2,4-diamine] the value was less than 8.00; for `CP(C)(=O)c1ccc(Nc2ncc(C(F)(F)F)c(NCCc3c[nH]c4ccccc34)n2)cc1` [Example 10, N^2-[4-(dimethylphosphoryl)phenyl]-N^4-[2-(1H-indol-3-yl)ethyl]-5-(trifluoromethyl)pyrimidine-2,4-diamine], less than 8.00.

On to `CN1CCN(Nc2nc(Nc3ccc(P(C)(C)=O)cc3)ncc2C(F)(F)F)CC1` [Example 11, N^2-[4(dimethylphosphoryl)phenyl]-N^4-(4-methylpiperazin-1-yl)-5-(trifluoromethyl) pyrimidine-2,4-diamine], for which the pIC50 was less than 8.00. Compound `CP(C)(=O)c1ccc(Nc2ncc(C(F)(F)F)c(NCC34CC5CC(CC(C5)C3)C4)n2)cc1` [Example 12, N^2-[4-(dimethylphosphoryl)phenyl]-N′-(tricyclo[3.3.1.1^3,7]dec-1-ylmethyl)-5-(trifluoromethyl)pyrimidine-2,4-diamine] gave a pIC50 of less than 8.00. `CN1CCN(c2ccc(CNc3nc(Nc4ccc(P(C)(C)=O)cc4)ncc3C(F)(F)F)cc2)CC1` [Example 13, N^2-[4-(dimethylphosphoryl)phenyl]-N^4-[4-(4-methylpiperazin-1-yl)benzyl]-5-(trifluoromethyl)pyrimidine-2,4-diamine]: the negative-log IC50 (pIC50) was less than 8.00. The compound `Cc1cc(C)cc(Nc2nc(Nc3ccc(P(C)(C)=O)cc3)ncc2C(F)(F)F)c1` [Example 14, N^4-(3,5-dimethylphenyl)-N^2-[4-(dimethylphosphoryl)phenyl]-5(trifluoromethyl)pyrimidine-2,4-diamine] gave a pIC50 of less than 8.00. In turn, `COc1cc(P(C)(C)=O)ccc1Nc1ncc(Cl)c(Nc2ccccc2)n1` [Example 15, 5-chloro-N^2-[4-(dimethylphosphoryl)-2-methoxyphenyl]-N^4-phenylpyrimidine-2,4-diamine] gave a pIC50 of less than 8.00.

`COc1cc(P(C)(C)=O)ccc1Nc1ncc(C(F)(F)F)c(Nc2ccccc2S(=O)(=O)C(C)C)n1` [Example 16, N^2-[4-(dimethylphosphoryl)-2-methoxyphenyl]-N^4-[2-(propan-2-ylsulfonyl)phenyl]-5-(trifluoromethyl)pyrimidine-2,4-diamine]: the pIC50 is 8.00 to 8.70.

Consider `COc1cc(P(C)(C)=O)ccc1Nc1ncc(Cl)c(Nc2ccccc2S(=O)(=O)C(C)C)n1` [Example 17, 5-chloro-N-[4-(dimethylphosphoryl)-2-methoxyphenyl]-N^4-[2-(propan-2-ylsulfonyl)phenyl]pyrimidine-2,4-diamine], for which the pIC50 is more than 8.70. `CC(C)S(=O)(=O)c1ccccc1Nc1nc(Nc2ccc(P(C)(C)=O)cc2)ncc1Cl` [Example 18, 5-chloro-N^2-[4-(dimethylphosphoryl)phenyl]-N^4-[2-(propan-2-ylsulfonyl)phenyl]pyrimidine-2,4-diamine]: the pIC50 was 8.00 to 8.70. Compound `COc1cc(N2CCC(N3CCN(C)CC3)CC2)ccc1Nc1ncc(Cl)c(Nc2ccc(P(C)(C)=O)cc2)n1` [Example 19, 5-chloro-N^4-[4-(dimethylphosphoryl)phenyl]-N^2-{2-methoxy-4-[4-(4-methylpiperazin-1-yl)piperidin-1-yl]phenyl}pyrimidine-2,4-diamine] gave a pIC50 of less than 8.00.

For `COc1cc(P(C)(C)=O)ccc1Nc1nccc(Nc2ccccc2S(=O)(=O)C(C)C)n1` [Example 20, N^2-[4-(dimethylphosphoryl)-2-methoxyphenyl]-N^4-[2-(propan-2-ylsulfonyl)phenyl]pyrimidine-2,4-diamine], the pIC50 is less than 8.00.

As to `COc1cc(P(C)(C)=O)ccc1Nc1ncc(C)c(Nc2ccccc2S(=O)(=O)C(C)C)n1` [Example 21, N^2-[4-(Dimethylphosphoryl)-2-methoxyphenyl]-5-methyl-N^4-[2-(propan-2-ylsulfonyl)phenyl]pyrimidine-2,4-diamine], the pIC50 was 8.00 to 8.70. To `COc1ccc(P(C)(C)=O)cc1Nc1ncc(Cl)c(Nc2ccccc2S(=O)(=O)C(C)C)n1` [Example 22, 5-Chloro-N^2-[5-(dimethylphosphoryl)-2-methoxyphenyl]-N^4-[2-(propan-2-ylsulfonyl)phenyl]pyrimidine-2,4-diamine] belongs 8.00 to 8.70; to `Cc1cc(P(C)(C)=O)ccc1Nc1ncc(Cl)c(Nc2ccccc2S(=O)(=O)C(C)C)n1` [Example 23, 5-Chloro-N^2-[4-(dimethylphosphoryl)-2-methylphenyl]-N-[2-(propan-2-ylsulfonyl)phenyl]pyrimidine-2,4-diamine], more than 8.70.

`CCc1cc(P(C)(C)=O)ccc1Nc1ncc(Cl)c(Nc2ccccc2S(=O)(=O)C(C)C)n1` [Example 24, 5-Chloro-N^2-[4-(dimethylphosphoryl)-2-ethylphenyl]-N^4-[2-(propan-2-ylsulfonyl)phenyl]pyrimidine-2,4-diamine] showed a pIC50 of more than 8.70. To `CC(C)S(=O)(=O)c1ccccc1Nc1nc(Nc2ccc(P(C)(C)=O)cc2OC(F)(F)F)ncc1Cl` [Example 25, 5-Chloro-N^2-[4-(dimethylphosphoryl)-2-(trifluoromethoxy)phenyl]-N^4-[2-(propan-2-ylsulfonyl)phenyl]pyrimidine-2,4-diamine] belongs more than 8.70. In turn, `CC(C)S(=O)(=O)c1ccccc1Nc1nc(Nc2ccc(P(C)(C)=O)cc2Cl)ncc1Cl` [Example 26, 5-Chloro-N^2-[2-chloro-4-(dimethylphosphoryl)phenyl]-N^4-[2-(propan-2-ylsulfonyl)phenyl]pyrimidine-2,4-diamine] had a pIC50 of more than 8.70. In turn, `CC(C)S(=O)(=O)c1ccccc1Nc1nc(Nc2ccc(P(C)(C)=O)cc2F)ncc1Cl` [Example 27, 5-Chloro-N^2-[4-(dimethylphosphoryl)-2-fluorophenyl]-N^4-[2-(propan-2-ylsulfonyl)phenyl]pyrimidine-2,4-diamine] showed a pIC50 of 8.00 to 8.70. As for `COc1cc(P(C)(C)=O)ccc1Nc1ncc(N)c(Nc2ccccc2S(=O)(=O)C(C)C)n1` [Example 28, N^2-[4-(dimethylphosphoryl)-2-methoxyphenyl]-N^4-[2-(propan-2-ylsulfonyl)phenyl]pyrimidine-2,4,5-triamine], the pIC50 is less than 8.00.
